Test results taken from PMC11748363, “Antimicrobial and Antiproliferative Properties of 2‐Phenyl‐N‐(Pyridin‐2‐yl)acetamides” (Chemical Biology & Drug Design, 2025).
Values after ≈ are worked out from the molar mass of the structure shown. Like-named read-outs stand apart in the source and are kept apart here.

Key:
[1] = system: Mycobacterium tuberculosis H37Ra; assay: Antimycobacterial microdilution broth MIC (resazurin), Mtb H37Ra; format: cell-based; conditions: for MIC: Mycobacterium tuberculosis, H37RA, read-out: MIC Mtb H37Ra
[2] = system: Mycolicibacterium smegmatis DSM 43465; assay: Antimycobacterial microdilution broth MIC (resazurin), M. smegmatis; format: cell-based; conditions: DSM43465, read-out: MIC M. smegmatis
[3] = system: Mycolicibacterium aurum DSM 43999; assay: Antimycobacterial microdilution broth MIC (resazurin), M. aurum; format: cell-based; conditions: DSM43999, read-out: MIC M. aurum
[4] = system: HepG2 cell line; assay: Cytotoxicity CellTiter 96, HepG2; format: cell-based, human; conditions: Homo sapiens, HepG2, 24 h, 24 h incubation; ^c compound precipitated in the testing medium; ^d over the limit of tested concentrations
Experimental: The cytotoxicity of final compounds was determined in human hepatocellular carcinoma cell line HepG2.
Cytotoxicity determination
Human hepatocellular liver carcinoma cell line HepG2 purchased from Health Protection Agency Culture Collections (ECACC, Salisbury, UK) was cultured in MEM (Minimum Essentials Eagle Medium, Sigma–Aldrich) supplemented with 10% fetal bovine serum (PAA Laboratories, Pasching, Austria), 1% L-glutamine solution (Sigma–Aldrich) and non-essential amino acid solution (Sigma–Aldrich) in a humidified atmosphere containing 5% CO2 at 37 °C. For subculturing, the cells were harvested after trypsin/EDTA (Sigma–Aldrich) treatment at 37 °C. To evaluate cytotoxicity, the cells treated with the tested substances were used as experimental groups whereas untreated HepG2 cells served as controls. The cells were seeded in density 10,000 cells per well in a 96 well plate. The next day the cells were treated with each of the tested substances dissolved in DMSO. The tested substances were
in triplicates according to their solubility. Simultaneously, the controls representing 100% cell viability, 0% cell viability (the cells treated with 10% DMSO), no cell control and vehiculum controls were also
the reagent from the kit CellTiter 96 AQueous One Solution Cell Proliferation Assay (CellTiter 96; PROMEGA, Fitchburg, USA) was added. After 2h incubation at 37 °C, absorbance of samples was recorded at 490 nm (TECAN, Infinita M200, Austria). A standard toxicological parameter IC50 was calculated by nonlinear regression from a semilogarithmic plot of incubation concentration versus percentage of absorbance relative to untre ated controls using GraphPad Prism 8 software.

[5] = system: Staphylococcus aureus CCM 4223, ATCC 29213; assay: Antibacterial microdilution broth MIC, SA; format: cell-based; conditions: Staphylococcus aureus
[6] = system: Staphylococcus aureus subsp. aureus CCM 4750, ATCC 43300 (MRSA); assay: Antibacterial microdilution broth MIC, MRSA; format: cell-based; conditions: Staphylococcus aureus
[7] = system: Staphylococcus epidermidis CCM 4418, ATCC 12228; assay: Antibacterial microdilution broth MIC, SE; format: cell-based
[8] = system: Enterococcus faecalis CCM 4224, ATCC 29212; assay: Antibacterial microdilution broth MIC, EF; format: cell-based
[9] = system: Escherichia coli CCM 3954, ATCC 25922; assay: Antibacterial microdilution broth MIC, EC; format: cell-based
[10] = system: Acinetobacter baumannii DSM 30007, ATCC 19606; assay: Antibacterial microdilution broth MIC, ACI; format: cell-based
[11] = system: Pseudomonas aeruginosa CCM 3955, ATCC 27853; assay: Antibacterial microdilution broth MIC, PA; format: cell-based
[12] = system: Candida albicans CCM 8320, ATCC 24433; assay: Antifungal microdilution broth MIC, CA
[13] = system: Candida krusei CCM 8271, ATCC 6258; assay: Antifungal microdilution broth MIC, CK; conditions: Pichia kudriavzevii
[14] = system: Candida parapsilosis CCM 8260, ATCC 22019; assay: Antifungal microdilution broth MIC, CP; conditions: Lodderomyces parapsilosis
[15] = system: Candida tropicalis CCM 8264, ATCC 750; assay: Antifungal microdilution broth MIC, CT
[16] = system: Aspergillus fumigatus ATCC 204305; assay: Antifungal microdilution broth MIC, AF
[17] = system: Lichtheimia corymbifera CCM 8077; assay: Antifungal microdilution broth MIC, LC
[18] = system: Trichophyton interdigitale CCM 8377, ATCC 9533; assay: Antifungal microdilution broth MIC, TI; conditions: Trichophyton interdigitale
[19] = system: Aspergillus flavus CCM 8363; assay: Antifungal microdilution broth MIC, AFla
[20] = system: Klebsiella pneumoniae CCM 4415, ATCC 10031; assay: Antibacterial microdilution broth MIC, KP
[21] = ATCC204305, 24 h, read-out: MIC AF 24h
[22] = ATCC204305, 48 h, read-out: MIC AF 48h
[23] = CCM8077, 24 h, read-out: MIC LC 24h
[24] = CCM8077, 48 h, read-out: MIC LC 48h
[25] = CCM8363, 24 h, read-out: MIC AFla 24h
[26] = CCM8363, 48 h, read-out: MIC AFla 48h

Work on `O=C(Cc1ccccc1C(F)(F)F)Nc1ccccn1` [Compound 22] yielded an MIC ([1]; Calculated from MIC (μg/mL)) of 446 µM, an MIC [1] of 125 µg/mL and an MIC [2] of 250 µg/mL (≈ 892 µM). The MIC [3] was 250 µg/mL (≈ 892 µM), the IC50 [4] was 445 µM and the MIC ([5]; 24 h, read-out: MIC SA 24h) was > 500 µM. For the same compound, the MIC ([5]; 48 h, read-out: MIC SA 48h) was > 500 µM, the MIC ([6]; 24 h, read-out: MIC MRSA 24h) was > 500 µM and the MIC ([6]; 48 h, read-out: MIC MRSA 48h) was > 500 µM. For the same compound, the MIC ([7]; 24 h, read-out: MIC SE 24h) was > 500 µM, the MIC ([7]; 48 h, read-out: MIC SE 48h) was > 500 µM and the MIC ([8]; 24 h, read-out: MIC EF 24h) was > 500 µM. For the same compound, the MIC ([8]; 48 h, read-out: MIC EF 48h) was > 500 µM, the MIC ([9]; 24 h, read-out: MIC EC 24h) was > 500 µM and the MIC ([9]; 48 h, read-out: MIC EC 48h) was > 500 µM. The MIC ([10]; 24 h, read-out: MIC ACI 24h) was > 500 µM, the MIC ([10]; 48 h, read-out: MIC ACI 48h) was > 500 µM and the MIC ([11]; 24 h, read-out: MIC PA 24h) was > 500 µM. For the same compound, the MIC ([11]; 48 h, read-out: MIC PA 48h) was > 500 µM, the MIC ([12]; 24 h, read-out: MIC CA 24h) was > 500 µM and the MIC ([12]; 48 h, read-out: MIC CA 48h) was > 500 µM. The MIC ([13]; 24 h, read-out: MIC CK 24h) was > 500 µM, the MIC ([13]; 48 h, read-out: MIC CK 48h) was > 500 µM and the MIC ([14]; 24 h, read-out: MIC CP 24h) was > 500 µM. The MIC ([14]; 48 h, read-out: MIC CP 48h) was > 500 µM, the MIC ([15]; 24 h, read-out: MIC CT 24h) was > 500 µM and the MIC ([15]; 48 h, read-out: MIC CT 48h) was > 500 µM. For the same compound, the MIC [16, 21] was 500 µM (≈ 140 µg/mL), the MIC [16, 22] was > 500 µM and the MIC [17, 23] was 500 µM (≈ 140 µg/mL). The MIC [17, 24] was > 500 µM, the MIC ([18]; 72 h, read-out: MIC TI 72h) was 500 µM (≈ 140 µg/mL) and the MIC ([18]; 120 h, read-out: MIC TI 120h) was 500 µM (≈ 140 µg/mL). The MIC [19, 25] was > 500 µM, the MIC [19, 26] was > 500 µM and the “MIC KP 24h” value [20] was > 500 µM. The “MIC KP 48h” value [20] was > 500 µM.
In the case of `O=C(Cc1ccc(Cl)cc1)Nc1ccccn1` [Compound 19], the MIC ([1]; Calculated from MIC (μg/mL)) is reported as 127 µM, the MIC [1] is reported as 31.2 µg/mL and the “SI (selectivity index)” value ([1]; SI = HepG2 IC50 (μM)/MIC MtbH37Ra (μM), calculated for compounds with MIC ≤ 31.25 μg/mL) is reported as 2.6. The MIC [2] was 31.2 µg/mL (≈ 127 µM), the MIC [3] was > 500 µg/mL and the IC50 [4] was 333 µM. The MIC ([5]; 24 h, read-out: MIC SA 24h) was 500 µM (≈ 123 µg/mL), the MIC ([5]; 48 h, read-out: MIC SA 48h) was 500 µM (≈ 123 µg/mL) and the MIC ([6]; 24 h, read-out: MIC MRSA 24h) was > 500 µM. For the same compound, the MIC ([6]; 48 h, read-out: MIC MRSA 48h) was > 500 µM, the MIC ([7]; 24 h, read-out: MIC SE 24h) was 125 µM (≈ 30.8 µg/mL) and the MIC ([7]; 48 h, read-out: MIC SE 48h) was 125 µM (≈ 30.8 µg/mL). For the same compound, the MIC ([8]; 24 h, read-out: MIC EF 24h) was > 500 µM, the MIC ([8]; 48 h, read-out: MIC EF 48h) was > 500 µM and the MIC ([9]; 24 h, read-out: MIC EC 24h) was > 500 µM. For the same compound, the MIC ([9]; 48 h, read-out: MIC EC 48h) was > 500 µM, the MIC ([10]; 24 h, read-out: MIC ACI 24h) was > 500 µM and the MIC ([10]; 48 h, read-out: MIC ACI 48h) was > 500 µM. The MIC ([11]; 24 h, read-out: MIC PA 24h) was > 500 µM, the MIC ([11]; 48 h, read-out: MIC PA 48h) was > 500 µM and the MIC ([12]; 24 h, read-out: MIC CA 24h) was > 500 µM. The MIC ([12]; 48 h, read-out: MIC CA 48h) was > 500 µM, the MIC ([13]; 24 h, read-out: MIC CK 24h) was 500 µM (≈ 123 µg/mL) and the MIC ([13]; 48 h, read-out: MIC CK 48h) was 500 µM (≈ 123 µg/mL). For the same compound, the MIC ([14]; 24 h, read-out: MIC CP 24h) was 500 µM (≈ 123 µg/mL), the MIC ([14]; 48 h, read-out: MIC CP 48h) was 500 µM (≈ 123 µg/mL) and the MIC ([15]; 24 h, read-out: MIC CT 24h) was > 500 µM. For the same compound, the MIC ([15]; 48 h, read-out: MIC CT 48h) was > 500 µM, the MIC [16, 21] was > 500 µM and the MIC [16, 22] was > 500 µM. The MIC [17, 23] was > 500 µM, the MIC [17, 24] was > 500 µM and the MIC ([18]; 72 h, read-out: MIC TI 72h) was 250 µM (≈ 61.7 µg/mL). For the same compound, the MIC ([18]; 120 h, read-out: MIC TI 120h) was 250 µM (≈ 61.7 µg/mL), the MIC [19, 25] was > 500 µM and the MIC [19, 26] was > 500 µM. The “MIC KP 24h” value [20] was > 500 µM and the “MIC KP 48h” value [20] was > 500 µM.
`COc1ccccc1CC(=O)Nc1ccc(Cl)cn1` [Compound 5] was tested, and the MIC ([1]; Calculated from MIC (μg/mL)) was > 1800 µM, the MIC [1] was > 500 µg/mL and the MIC [2] was > 500 µg/mL. For the same compound, the MIC [3] was > 500 µg/mL, the IC50 [4] was > 250 µM and the MIC ([5]; 24 h, read-out: MIC SA 24h) was > 500 µM. The MIC ([5]; 48 h, read-out: MIC SA 48h) was > 500 µM, the MIC ([6]; 24 h, read-out: MIC MRSA 24h) was > 500 µM and the MIC ([6]; 48 h, read-out: MIC MRSA 48h) was > 500 µM. For the same compound, the MIC ([7]; 24 h, read-out: MIC SE 24h) was > 500 µM, the MIC ([7]; 48 h, read-out: MIC SE 48h) was > 500 µM and the MIC ([8]; 24 h, read-out: MIC EF 24h) was > 500 µM. The MIC ([8]; 48 h, read-out: MIC EF 48h) was > 500 µM, the MIC ([9]; 24 h, read-out: MIC EC 24h) was > 500 µM and the MIC ([9]; 48 h, read-out: MIC EC 48h) was > 500 µM. For the same compound, the MIC ([10]; 24 h, read-out: MIC ACI 24h) was > 500 µM, the MIC ([10]; 48 h, read-out: MIC ACI 48h) was > 500 µM and the MIC ([11]; 24 h, read-out: MIC PA 24h) was > 500 µM. For the same compound, the MIC ([11]; 48 h, read-out: MIC PA 48h) was > 500 µM, the MIC ([12]; 24 h, read-out: MIC CA 24h) was > 500 µM and the MIC ([12]; 48 h, read-out: MIC CA 48h) was > 500 µM. For the same compound, the MIC ([13]; 24 h, read-out: MIC CK 24h) was > 500 µM, the MIC ([13]; 48 h, read-out: MIC CK 48h) was > 500 µM and the MIC ([14]; 24 h, read-out: MIC CP 24h) was > 500 µM. For the same compound, the MIC ([14]; 48 h, read-out: MIC CP 48h) was > 500 µM, the MIC ([15]; 24 h, read-out: MIC CT 24h) was > 500 µM and the MIC ([15]; 48 h, read-out: MIC CT 48h) was > 500 µM. For the same compound, the MIC [16, 21] was > 500 µM, the MIC [16, 22] was > 500 µM and the MIC [17, 23] was > 500 µM. For the same compound, the MIC [17, 24] was > 500 µM, the MIC ([18]; 72 h, read-out: MIC TI 72h) was 500 µM (≈ 138 µg/mL) and the MIC ([18]; 120 h, read-out: MIC TI 120h) was 500 µM (≈ 138 µg/mL). For the same compound, the MIC [19, 25] was > 500 µM, the MIC [19, 26] was > 500 µM and the “MIC KP 24h” value [20] was > 500 µM. The “MIC KP 48h” value [20] was > 500 µM.
